# Results published in US10772928B2, “Modulation and detection of a neuronal alternative splicing regulatory network for treatment and diagnosis of neurological disorders” (The Governing Council of the University of Toronto, priority 2014, dated 2020).
# Entries after “also recorded” stand apart in the source; their conditions may differ. Peptide text beside a SMILES is read from it. * marks the point of attachment. Cbz = O=C(OCc1ccccc1)*
# Key:
# [1] = molecular target: T1, nSR100 (Mus musculus, UniProt Q8BKA3); test: Regulation by nSR100: microexon inclusion level (PSI) by RNA-Seq in mouse N2A cells depleted of nSR100 (Table 2); assay type: cell-based
# T1 construct: host or cells: mouse N2A cells
# T1 sequence (Q8BKA3 1-608): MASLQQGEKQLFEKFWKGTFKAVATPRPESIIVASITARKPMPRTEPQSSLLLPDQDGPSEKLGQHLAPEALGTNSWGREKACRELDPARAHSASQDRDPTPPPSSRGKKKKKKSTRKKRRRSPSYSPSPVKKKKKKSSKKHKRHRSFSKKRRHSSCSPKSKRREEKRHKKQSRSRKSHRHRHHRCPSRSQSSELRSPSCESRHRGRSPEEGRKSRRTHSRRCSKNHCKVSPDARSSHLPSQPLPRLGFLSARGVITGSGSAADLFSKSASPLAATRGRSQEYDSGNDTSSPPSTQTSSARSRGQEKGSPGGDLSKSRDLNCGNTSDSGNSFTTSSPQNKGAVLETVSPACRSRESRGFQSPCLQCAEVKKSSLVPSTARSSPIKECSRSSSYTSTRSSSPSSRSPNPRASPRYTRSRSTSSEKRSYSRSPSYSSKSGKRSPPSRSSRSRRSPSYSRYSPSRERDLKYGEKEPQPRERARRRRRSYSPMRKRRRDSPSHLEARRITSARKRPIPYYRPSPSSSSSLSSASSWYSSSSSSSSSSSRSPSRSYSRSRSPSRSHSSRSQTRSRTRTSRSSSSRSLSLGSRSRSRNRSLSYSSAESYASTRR
# Text: A-H) Percent of neural-regulated exons within each length class that is affected at 15<|ΔPSI|<25 and |ΔPSI|>25 by (A) RBFOX1 knockdown in human neural precursor cells; (B) MBNL1 and MBNL2 double knockdown in human HeLa cells; (C) ESRP1 knockdown in human PNT2 cells; (D) nSR100/Srrm4 knockdown in mouse N2A cells; (E) Ptbp1 knockdown in mouse N2A cells; (F) Ptbp2 knockout in mouse cortex (P1 stage); (G) Ptbp2 knockout in mouse embryonic brain (18.5 days post-conception); and (H) Rbfox1 knockout. p values correspond to two-sided proportion tests of regulated versus non-regulated events. I) Expression of nSR100 in different isolated brain cell types (Zhang et al., 2014). Error bars indicate SEM. […]
# (§1) An RNA-Seq analysis pipeline was developed to detect and quantify all AS event classes involving all hypothetically possible splice junctions formed by the usage of annotated and unannotated splice sites, including those that demarcate microexons. […]
# (§2) A multi-module analysis pipeline was developed that uses RNA-Seq, expressed sequence tag (EST) and cDNA data, as well as gene annotations and evolutionary conservation, to assemble libraries of exon-exon-junctions (EEJs) for subsequent read alignment to detect and quantify AS events in RNA-Seq data. […] Alt3 or Alt5 events were quantified based on the fraction of reads supporting the usage of each alternative splice site. […]
# [2] = system: hippocampal mouse neurons; test: RNA-Seq analysis of alternative splicing events after KCl depolarization of cultured hippocampal neurons (Table 3); assay type: cell-based; settings: for number of alternative splicing events displaying changes: change of at least 15
# Description: A) Number of alternative splicing events with PSI, percent intron retention (PIR) or percent splice site usage (PSU) changes of at least 15, 30 minutes and 3 hours after neuronal depolarization. B) Microexons and cassette exons are preferentially skipped following neuronal depolarization, whereas retained introns show no directionality. C) Gene ontology analysis of microexons and cassettes exons with ΔPSI≥15 during neuronal depolarization.
# A systematic analysis of alternative splicing events modulated by neuronal activity, including microexons, longer cassette exons, retained introns and alternative 5′ and 3′ splice sites was first performed. Cultured wild-type hippocampal mouse neurons were depolarized using KCl treatment for thirty minutes or three hours and RNA-Seq analysis was performed on these samples. […] Among the additional alternative splicing events affected by neuronal depolarization were 887 (of 10830 detected alternative cassette exons>27 nt; 8.1%) alternative cassette exons and 672 retained introns. Longer alternative cassette exons were also primarily skipped in depolarized neurons (747/887; 84.2%) (FIG. 42B). Genes harboring depolarization-dependent alternative cassette exons have functions related to signal transduction and transcription regulation whereas those with microexons relate primarily to vesicle transport (FIG. 42C).
# [3] = system: nSR100; test: nSR100 protein (western blot) and mRNA (qRT-PCR) levels in KCl-depolarized DIV11 cortical neurons; assay type: cell-based, mouse
# Text: A) Overlap between microexons that are skipped in humans with ASD (upper set), skipped upon neuronal depolarization (lower left set) and nSR100-regulated microexons (lower right set). B) Microexons were plotted based on their PSI difference between depolarized and resting wild-type neurons (X-axis), and between nSR100^Δ7-8/Δ7-8 and nSR100^+/+ mice (Y-axis). C) Cumulative distribution plots indicating the position of the first UGC motif within 200 nt upstream of neuronal activity-regulated microexons (dashed curve) or longer cassette exons (thick solid curve) vs. non-neural alternative cassette exons (light solid curve). The number of exons used to analyze each subgroup is shown in parentheses. D) Western blot on KCl-treated DIV11 cortical neurons (left panel) and quantification of nSR100 protein level (right panel). E) RT-PCR showing increased intron retention and microexon inclusion in nSR100 transcripts early after depolarization of DIV11 cortical neurons. […] G) Representative RT-PCRs on nuclear and cytosolic fractions (left panel) to assess localization of nSR100 transcripts in three replicates of cultured DIV4 cortical neurons with qRT-PCR quantification of the abundance of nSR100 isoforms harboring the retained intron, normalized to GAPDH levels in the correspondent cell fractions from six replicates (right panel). […]
# [4] = molecular target: T2, nSR100 (Homo sapiens, UniProt A7MD48); test: Regulation by nSR100: microexon inclusion level (PSI) by RNA-Seq in human 293T cells overexpressing nSR100 (Table 1); assay type: cell-based; settings: YES/NO
# T2 construct: expressed in transfected cells; host or cells: 293T (human kidney cells), doxycycline-inducible nSR100 expression
# T2 sequence (A7MD48 1-611): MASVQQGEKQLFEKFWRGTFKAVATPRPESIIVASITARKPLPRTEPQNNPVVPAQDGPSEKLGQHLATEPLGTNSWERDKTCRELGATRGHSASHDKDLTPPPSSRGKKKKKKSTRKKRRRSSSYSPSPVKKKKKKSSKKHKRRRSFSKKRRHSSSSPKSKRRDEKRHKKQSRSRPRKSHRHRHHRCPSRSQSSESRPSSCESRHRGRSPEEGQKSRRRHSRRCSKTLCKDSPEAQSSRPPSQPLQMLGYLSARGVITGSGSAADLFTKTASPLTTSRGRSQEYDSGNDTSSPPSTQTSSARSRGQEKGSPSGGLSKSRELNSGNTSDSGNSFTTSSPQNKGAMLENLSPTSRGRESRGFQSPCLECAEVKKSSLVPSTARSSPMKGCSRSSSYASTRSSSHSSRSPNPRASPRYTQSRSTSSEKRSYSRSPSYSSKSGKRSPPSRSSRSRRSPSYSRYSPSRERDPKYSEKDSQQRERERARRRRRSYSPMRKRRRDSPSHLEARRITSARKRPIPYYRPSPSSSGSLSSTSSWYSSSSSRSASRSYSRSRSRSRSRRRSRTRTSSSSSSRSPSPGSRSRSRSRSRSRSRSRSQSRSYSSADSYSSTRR
# Text: A) Percent of neural-regulated exons within each length class that is affected by nSR100 expression in human 293T kidney cells (absolute ΔPSI>15, light grey or absolute ΔPSI>25, dark grey). p-values correspond to two-sided proportion tests of affected vs. non-affected events. B) Average normalized density of nSR100 cross-linked sites in 200 nt windows encompassing neural-regulated exons of different length classes. FPB, Fragments Per Billion. […]
# as §1
# as §2, with “site. Intron retention was analyzed as recently described (Braunschweig et al., 2014).” for “site.”
# [5] = system: nSR100; test: nSR100 protein levels by western blot in dox-inducible, nSR100-expressing 293T cells; assay type: cell-based, human; settings: versus DMSO or control siRNAs
# Text: Tubulin detection was used as loading control.
# RT-PCR assays were used to confirm FBXW11 knockdown. nSR100 protein levels were monitored using a western blot. Tubulin and 1-actin detection was used to control for loading.
# By applying affinity purification coupled to mass-spectrometry (AP-MS), several interaction nSR100 partner proteins were detected that provide insight into mechanisms of post-translational regulation of nSR100 levels. For example, AP-MS experiments identified the F-box protein FBXW11 (also known as 1TRCP2) as an nSR100 interaction partner. The Skp-Cullin-F-box (SCF) complex is a multi-protein complex that regulates cellular protein levels via ubiquitin-mediated proteolysis. FBXW11 is an E3 ubiquitin ligase that confers specificity to the SCF complex by recognizing a particular phosphodegron on targets. In addition, Skp1, which is required for recognizing and binding FBXW11, was also detected in nSR100 AP-MS experiments. Phosphorylation of consensus binding sites for F-box proteins, including FBXW11, is typically required for targeting of proteins for degradation by the proteosomal pathway. The set of nSR100 interaction partners identified by AP-MS included several kinases such as PLK1, GSK3B, CSNK2, CSNK1, CDK1 and SRPK1, as well as other kinases that may control nSR100 levels and or activity.
compound,measurement,setting,value
Dtnb,Regulation by nSR100,[1]; threshold change of PSI≥10,YES
[Cl-].[K+] [KCl],number of alternative splicing events displaying changes,[2]; 30 minutes after KCl treatment,222
same,"microexons with increased skipping, share of all microexons",[2]; 3 hours of KCl treatment,14.7%
same,number of microexons with higher inclusion levels,[2]; 3 hours of KCl treatment,7
same,number of microexons with increased skipping (of 598 detected),[2]; 3 hours of KCl treatment,88
same,number of alternative splicing events displaying changes,[2]; 3 hours of KCl treatment,"1,829"
same,decrease in nSR100 protein levels,"[3]; 30 minutes into KCl treatment, DIV11 cortical neurons",2 fold
same,nSR100 mRNA levels,"[3]; thirty minutes after depolarization, qRT-PCR",remain steady
Sbf1,Regulation by nSR100,[1]; YES/NO,YES
DTNB,Regulation by nSR100,[4],YES (minimum threshold (PSI≥10) requirement for annotation as “YES”)
CC(C)C[C@@H](C=O)NC(=O)[C@H](CC(C)C)NC(=O)[C@H](CC(C)C)NC(=O)OCc1ccccc1 [MG132] (Cbz-Leu-Leu-Leu-aldehyde),nSR100 protein levels,[5],increased levels of SRRM4; also recorded: significant increases in levels of nSR100
